From ChEMBL document CHEMBL2016540, “Indole-propionic acid derivatives as potent, S1P3-sparing and EAE efficacious sphingosine-1-phosphate 1 (S1P1) receptor agonists” (Bioorg Med Chem Lett, 2012)
Activity calls are given as the source filed them. No cut-off for these calls is given here.

Experiments:
[1] = target: Sphingosine 1-phosphate receptor 3 (Homo sapiens, UniProt Q99500); experiment: Agonist activity at human S1P3 receptor assessed as Ca2+ mobilization by GeneBLAzer assay; format: functional
Sphingosine 1-phosphate receptor 3, sequence (Q99500 whole entry): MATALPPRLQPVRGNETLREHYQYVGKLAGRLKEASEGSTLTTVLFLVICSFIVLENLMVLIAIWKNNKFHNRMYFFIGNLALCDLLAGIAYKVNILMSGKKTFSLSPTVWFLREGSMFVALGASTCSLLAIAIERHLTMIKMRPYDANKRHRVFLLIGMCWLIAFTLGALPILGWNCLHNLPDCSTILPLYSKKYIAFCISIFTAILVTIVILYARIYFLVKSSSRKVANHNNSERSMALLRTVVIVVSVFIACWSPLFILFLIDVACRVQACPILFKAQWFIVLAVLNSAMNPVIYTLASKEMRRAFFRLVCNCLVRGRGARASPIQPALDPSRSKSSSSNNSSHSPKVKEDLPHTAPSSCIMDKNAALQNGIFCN

[2] = target: Sphingosine 1-phosphate receptor 1 (Homo sapiens, UniProt P21453); experiment: Agonist activity at S1P1 receptor by Tango assay; format: functional
Sphingosine 1-phosphate receptor 1, sequence (P21453 whole entry): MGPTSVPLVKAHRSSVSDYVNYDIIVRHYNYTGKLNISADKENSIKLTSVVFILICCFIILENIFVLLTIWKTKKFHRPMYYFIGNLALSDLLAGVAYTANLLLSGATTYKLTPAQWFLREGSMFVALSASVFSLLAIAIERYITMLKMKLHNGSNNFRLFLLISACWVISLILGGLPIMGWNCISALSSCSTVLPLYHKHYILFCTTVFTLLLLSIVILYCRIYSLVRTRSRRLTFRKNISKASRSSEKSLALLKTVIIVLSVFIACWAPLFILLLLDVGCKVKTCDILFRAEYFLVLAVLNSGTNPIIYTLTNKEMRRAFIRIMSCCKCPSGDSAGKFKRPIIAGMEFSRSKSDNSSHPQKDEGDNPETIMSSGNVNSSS

[3] = Volume of distribution at steady state in C57BL/6 mouse blood at 1 mg/kg, iv and 2 mg/kg, po; format: ADME, organism-based; conditions: read-out: Vdss
[4] = Ratio of drug level in brain to blood in mouse at 2 mg/kg, ip at 2 hrs; format: ADME, organism-based; design: dose 2 mg/kg, route intraperitoneal; conditions: brain and blood
[5] = Cmax in C57BL/6 mouse blood at 1 mg/kg, iv and 2 mg/kg, po; format: ADME, organism-based
[6] = Ratio of drug level in brain to blood in mouse at 2 mg/kg, ip at 4 hrs; format: ADME, organism-based; design: dose 2 mg/kg, route intraperitoneal; conditions: brain and blood
[7] = Oral bioavailability in C57BL/6 mouse blood at 2 mg/kg; format: ADME, organism-based
Mus musculus [8] = organism: Mus musculus; experiment: Immunosuppressive activity in C57BL/6 mouse autoimmune encephalomyelitis model assessed as efficacy relative to fingolimod; format: functional, organism-based
[9] = Clearance in C57BL/6 mouse blood at 1 mg/kg, iv and 2 mg/kg, po; format: ADME, organism-based
[10] = Terminal half life in C57BL/6 mouse blood at 1 mg/kg, iv and 2 mg/kg, po; format: ADME, organism-based; conditions: read-out: beta t1/2 (converted)
Mus musculus [11] = experiment: Immunosuppressive activity in naive B6 mouse assessed as peripheral lymphocytes at 1 mg/kg, po at 24 hrs relative to control; format: functional
Mus musculus [12] = experiment: Immunosuppressive activity in naive B6 mouse assessed as peripheral lymphocytes at 1 mg/kg, po at 4 hrs relative to control; format: functional
[13] = Ratio of drug level in brain to blood in mouse at 2 mg/kg, ip at 1 hr; format: ADME, organism-based; design: dose 2 mg/kg, route intraperitoneal; conditions: brain and blood

`CC(C)Oc1ncc(-c2nc(-c3cccc4c(CCC(=O)O)c[nH]c34)no2)cc1Cl` showed an EC50 [1] of over 10000 nM and an EC50 [2] of 0.398 nM.
`O=C(O)CCc1c[nH]c2c(-c3noc(C4CCCCC4)n3)cccc12` showed an EC50 [1] of over 10000 nM and an EC50 [2] of over 10000 nM.
For `CC(C)Oc1ccc(-c2nc(-c3cccc4c(CC(=O)O)c[nH]c34)no2)cc1Cl`, the EC50 [1] was over 10000 nM and the EC50 [2] was 39.8 nM.
`Cc1cc(-c2nc(-c3cccc4c(CCC(=O)O)c[nH]c34)no2)cnc1OC(C)C` showed an EC50 [1] of over 10000 nM and an EC50 [2] of 1.58 nM.
With `COc1cc(-c2nc(-c3cccc4c(CCC(=O)O)c[nH]c34)no2)cnc1OC(C)C` the EC50 [1] was over 10000 nM and the EC50 [2] was 100 nM.
`CC(C)Oc1ccc(-c2nc(-c3ccc4c(CCC(=O)O)c[nH]c4c3)no2)cc1Cl` showed an EC50 [1] of over 10000 nM and an EC50 [2] of 0.251 nM.
`O=C(O)CCc1c[nH]c2c(-c3noc(C4CCOCC4)n3)cccc12` showed an EC50 [1] of over 10000 nM and an EC50 [2] of over 10000 nM.
`O=C(O)CCc1c[nH]c2c(-c3noc(-c4ccc(Cl)cc4)n3)cccc12` gave an EC50 [1] of over 10000 nM and an EC50 [2] of 3160 nM.
In the case of `CC(C)Oc1ccc(-c2nc(-c3cc(F)cc4c(CCC(=O)O)cn(C)c34)no2)cc1Cl`, the EC50 [1] is reported as over 10000 nM and the EC50 [2] is reported as under 0.01 nM.
In the case of `CCCn1cc(CCC(=O)O)c2cccc(-c3noc(-c4ccc(OC(C)C)c(Cl)c4)n3)c21`, the EC50 [1] is reported as over 10000 nM and the EC50 [2] is reported as 200 nM.
`CC(C)Oc1ccc(-c2nc(-c3ccc4ccn(CCC(=O)O)c4c3)no2)cc1Cl` showed an EC50 [1] of over 10000 nM and an EC50 [2] of 398 nM.
`CC1(C)Oc2ccc(-c3nc(-c4cccc5c(CCC(=O)O)c[nH]c45)no3)cc2O1` gave an EC50 [1] of over 10000 nM and an EC50 [2] of 398 nM.
`CC(C)Oc1ccc(-c2nc(-c3cccc4c(CCC(=O)O)cn(C(C)C)c34)no2)cc1Cl` gave an EC50 [1] of over 10000 nM and an EC50 [2] of 20 nM.
With `CCn1cc(CCC(=O)O)c2cccc(-c3noc(-c4ccc(OC(C)C)c(Cl)c4)n3)c21` the EC50 [1] was over 10000 nM and the EC50 [2] was 0.316 nM.
Work on `CC(C)Oc1ccc(-c2nc(-c3cccc4c(CCC(N)=O)c[nH]c34)no2)cc1Cl` yielded an EC50 [1] of over 10000 nM and an EC50 [2] of 0.0316 nM.
In the case of `CC(C)Oc1ccc(-c2nc(-c3ccc4[nH]c(CCC(=O)O)cc4c3)no2)cc1Cl`, the EC50 [1] is reported as over 10000 nM and the EC50 [2] is reported as 0.2 nM.
For `CCOc1ccc(-c2nc(-c3cccc4c(CCC(=O)O)c[nH]c34)no2)cc1OCC`, the EC50 [1] was over 10000 nM and the EC50 [2] was 3.16 nM.
`COc1ccc(-c2nc(-c3cccc4c(CCC(=O)O)c[nH]c34)no2)cc1OC` gave an EC50 [1] of over 10000 nM and an EC50 [2] of 1260 nM.
Molecule `COc1ccc(-c2noc(-c3ccc(OC(C)C)c(Cl)c3)n2)c2c1c(CCC(=O)O)cn2C` has an EC50 [1] of over 10000 nM and an EC50 [2] of 6.31 nM.
In the case of `CC(C)Oc1ccc(-c2nc(-c3c(F)ccc4c(CCC(=O)O)cn(C)c34)no2)cc1Cl`, the EC50 [1] is reported as over 10000 nM and the EC50 [2] is reported as 25.1 nM.
`CC(C)Oc1ccc(-c2nc(-c3cccc4c(CCCCC(=O)O)c[nH]c34)no2)cc1Cl` gave an EC50 [1] of over 10000 nM and an EC50 [2] of 0.0501 nM.
Work on `CC(C)Oc1ccc(-c2nc(-c3cccc4c(CCC(=O)O)c[nH]c34)no2)cc1Cl` yielded an EC50 [1] of over 10000 nM and an EC50 [2] of 0.0126 nM.
For `CC(C)Oc1ccc(-c2nc(-c3cccc4c(C(=O)O)c[nH]c34)no2)cc1Cl`, the EC50 [1] was over 10000 nM and the EC50 [2] was 5.01 nM.
Work on `CC(C)Oc1ncc(-c2nc(-c3cccc4c(CCC(=O)O)c[nH]c34)no2)cc1C(F)(F)F` yielded an EC50 [1] of over 10000 nM and an EC50 [2] of 0.251 nM.
For `O=C(O)CCc1c[nH]c2c(-c3noc(-c4ccc5c(c4)OCCO5)n3)cccc12`, the EC50 [1] was over 10000 nM and the EC50 [2] was over 3160 nM.
Molecule `CC(C)Oc1ccc(-c2nc(-c3ccc(F)c4c(CCC(=O)O)cn(C)c34)no2)cc1Cl` has a Vd [3] of 0.84 L/kg, a Kp at 2 h [4] of 0.48 and a Cmax [5] of 1700 ng/mL. It also gave an EC50 [1] of over 10000 nM, a Kp at 4 h [6] of 0.48 and an EC50 [2] of under 0.01 nM. For the same molecule, the bioavailability [7] was 100%, the Efficacy (Mus musculus [8]) was “Active” and the clearance [9] was 3.22 mL/min/kg. It also gave a half-life [10] of 3.83 h, an Activity (Mus musculus [11]) of 114% and an Activity (Mus musculus [12]) of 21%. For the same molecule, the Kp at 1 h [13] was 0.35.
For `CC(C)Oc1ccc(-c2nc(-c3cccc4c(CCc5nnn[nH]5)c[nH]c34)no2)cc1Cl`, the EC50 [1] was over 10000 nM and the EC50 [2] was 0.0794 nM.
`CC(C)Oc1ccc(-c2nc(-c3ccc4c(ccn4CCC(=O)O)c3)no2)cc1Cl` gave an EC50 [1] of over 10000 nM and an EC50 [2] of 2.51 nM.
With `CC(C)Oc1ccc(-c2nc(-c3cccc4c(CCCC(=O)O)c[nH]c34)no2)cc1Cl` the EC50 [1] was over 10000 nM and the EC50 [2] was 0.398 nM.
With `CNC(=O)CCc1c[nH]c2c(-c3noc(-c4ccc(OC(C)C)c(Cl)c4)n3)cccc12` the EC50 [1] was over 10000 nM and the EC50 [2] was 0.0398 nM.
Molecule `CC(C)Oc1ccc(-c2nc(-c3cccc4c(CCC(=O)O)cn(C)c34)no2)cc1Cl` has an EC50 [1] of over 10000 nM and an EC50 [2] of 0.00631 nM.
